From patent US6355799B1, “Substituted benzene compounds, process for their preparation, and herbicidal and defoliant compositions containing them” (ISK Americas Incorporated, priority 1997, dated 2002)

Experiments:
Assay type in all cases: in vivo
[1] = test system: redroot pigweed (Amaranthus retroflexus, AMARE); assay: Post-emerge test, greenhouse herbicide activity screening; details: post-emerge, 14 days after application
How it was run: (§1)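 Each test used a mechanized track sprayer delivering 187 l/ha of acetone solution at 15–1000 g ai/ha. Post-emerge foliage at 2–3 leaves was treated with added 0.25% v/v non-ionic surfactant and bottom-watered only. Injury was assessed on day 14, where 100 means total kill.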

[2] = test system: lambsquarters (Chenopodium album, CHEAL); assay: as above; details: post-emerge, 14 days after application, rating scale 0-100
How it was run: as §1

[3] = test system: sicklepod (Cassia obtusifolia, CASOB); assay: as above; details: post-emerge, 14 days after application, rating scale 0-100
How it was run: as §1

[4] = test system: velvetleaf (Abutilon theophrasti, ABUTH); assay: as above; details: post-emerge, 14 days after application, rating scale 0-100
How it was run: as §1

[5] = test system: large crabgrass (Digitaria sanguinalis, DIGSA); assay: as above; details: post-emerge, 14 days after application, rating scale 0-100
How it was run: as §1

[6] = test system: barnyardgrass (Echinochloa crus-galli, ECHCG); assay: as above; details: post-emerge, 14 days after application, rating scale 0-100
How it was run: as §1

[7] = test system: ivyleaf morningglory (Ipomoea hederacea, IPOHE); assay: as above; details: post-emerge, 14 days after application, rating scale 0-100
How it was run: as §1

[8] = test system: green foxtail (Setaria viridis, SETVI); assay: as above; details: post-emerge, 14 days after application, rating scale 0-100
How it was run: as §1

[9] = test system: johnsongrass (Sorghum halepense, SORHA); assay: as above; details: post-emerge, 14 days after application, rating scale 0-100
How it was run: as §1

[10] = test system: upland rice (Oryza sp., var. Tebonnet, RICE); assay: Pre-emerge test, crop safety; details: pre-emerge, 14 days after application, rating scale 0-100
How it was run: (§2)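 Sandy loam pots; pre-emerge: sown 1 d pre-spray, surface-watered after, then bottom-watered. Post-emerge: sown 8–21 d before, 2–3 leaf stage, + 0.25% v/v NIS, bottom-watered. Acetone, 187 l/ha track spray, 15–1000 g ai/ha. 0–100 injury score, day 14.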

[11] = test system: field corn (Zea mays L., var. Dekalb 535, CORN); assay: Pre-emerge test, crop safety; details: pre-emerge, 14 days after application, rating scale 0-100
How it was run: as §2

[12] = test system: upland rice (Oryza sp., var. Tebonnet, RICE); assay: Post-emerge test, crop safety; details: post-emerge, 14 days after application, rating scale 0-100
How it was run: (§3)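 Plants grown in 10 cm pots of sandy loam mix received acetone-dissolved compounds through a moving flat-fan nozzle. Doses ranged from 15 to 1000 g ai/ha. Pre-emerge pots were seeded one day earlier, post-emerge pots 8–21 days earlier. Fourteen days on, each pot was graded 0–100 for damage.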

[13] = test system: field corn (Zea mays L., var. Dekalb 535, CORN); assay: Post-emerge test, crop safety; details: post-emerge, 14 days after application, rating scale 0-100
How it was run: as §3

[14] = test system: lambsquarters (Chenopodium album, CHEAL); assay: Pre-emerge test, greenhouse herbicide activity screening; details: pre-emerge, 14 days after application, rating scale 0-100
How it was run: (§4)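 Rating: 0–100 visual injury, 14 DAA. Application: acetone, 187 l/ha, 15–1000 g ai/ha, flat-fan track sprayer with nozzle 40–45 cm above soil or canopy. Post-emerge runs used 0.25% v/v surfactant on 2–3 leaf plants.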

[15] = test system: sicklepod (Cassia obtusifolia, CASOB); assay: as above; details: pre-emerge, 14 days after application, rating scale 0-100
How it was run: as §4

[16] = test system: velvetleaf (Abutilon theophrasti, ABUTH); assay: as above; details: pre-emerge, 14 days after application, rating scale 0-100
How it was run: as §4

[17] = test system: large crabgrass (Digitaria sanguinalis, DIGSA); assay: as above; details: pre-emerge, 14 days after application, rating scale 0-100
How it was run: as §4

[18] = test system: barnyardgrass (Echinochloa crus-galli, ECHCG); assay: as above; details: pre-emerge, 14 days after application, rating scale 0-100
How it was run: as §4

[19] = test system: ivyleaf morningglory (Ipomoea hederacea, IPOHE); assay: as above; details: pre-emerge, 14 days after application, rating scale 0-100
How it was run: as §4

[20] = test system: green foxtail (Setaria viridis, SETVI); assay: as above; details: pre-emerge, 14 days after application, rating scale 0-100
How it was run: as §4

[21] = test system: johnsongrass (Sorghum halepense, SORHA); assay: as above; details: pre-emerge, 14 days after application, rating scale 0-100
How it was run: as §4

[22] = test system: redroot pigweed (Amaranthus retroflexus, AMARE); assay: as above; details: pre-emerge, 14 days after application, rating scale 0-100
How it was run: as §2

COc1c(Cl)cc(F)c(-n2c(=O)cc(C(F)(F)F)n(C)c2=O)c1NN=CCc1ccccc1 [15-15]
90: Post-emerge Herbicidal Activity IPOHE (phytotoxicity rating) ([7]; 63 g ai/ha) | Post-emerge Herbicidal Activity CORN (crop damage rating) ([13]; 250 g ai/ha)
45: Post-emerge Herbicidal Activity CORN (crop damage rating) ([13]; 63 g ai/ha)
30: Post-emerge Herbicidal Activity ECHCG (phytotoxicity rating) ([6]; 63 g ai/ha) | Post-emerge Herbicidal Activity SORHA (phytotoxicity rating) ([9]; 63 g ai/ha)
95: Post-emerge Herbicidal Activity SETVI (phytotoxicity rating) ([8]; 250 g ai/ha) | phytotoxicity rating RICE ([10]; 63 g ai/ha) | phytotoxicity rating CORN ([11]; 63 g ai/ha) | Post-emerge Herbicidal Activity RICE (crop damage rating) ([12]; 250 g ai/ha)
40: Post-emerge Herbicidal Activity DIGSA (phytotoxicity rating) ([5]; 63 g ai/ha) | Post-emerge Herbicidal Activity SETVI (phytotoxicity rating) ([8]; 63 g ai/ha)
70: Post-emerge Herbicidal Activity RICE (crop damage rating) ([12]; 63 g ai/ha)
99: Post-emerge Herbicidal Activity SORHA (phytotoxicity rating) ([9]; 250 g ai/ha)
100: Post-emerge Herbicidal Activity AMARE (phytotoxicity rating) ([1]; 63 g ai/ha, rating scale 0-100 (0 no damage, 100 complete death)) | Post-emerge Herbicidal Activity AMARE (phytotoxicity rating) ([1]; 250 g ai/ha, rating scale 0-100) | Post-emerge Herbicidal Activity CHEAL (phytotoxicity rating) ([2]; 63 g ai/ha) | Post-emerge Herbicidal Activity CHEAL (phytotoxicity rating) ([2]; 250 g ai/ha) | Post-emerge Herbicidal Activity CASOB (phytotoxicity rating) ([3]; 250 g ai/ha) | Post-emerge Herbicidal Activity ABUTH (phytotoxicity rating) ([4]; 63 g ai/ha) | Post-emerge Herbicidal Activity ABUTH (phytotoxicity rating) ([4]; 250 g ai/ha) | Post-emerge Herbicidal Activity DIGSA (phytotoxicity rating) ([5]; 250 g ai/ha) | Post-emerge Herbicidal Activity ECHCG (phytotoxicity rating) ([6]; 250 g ai/ha) | Post-emerge Herbicidal Activity IPOHE (phytotoxicity rating) ([7]; 250 g ai/ha) | phytotoxicity rating RICE ([10]; 250 g ai/ha) | phytotoxicity rating CORN ([11]; 250 g ai/ha) | phytotoxicity rating CHEAL ([14]; 63 g ai/ha) | phytotoxicity rating CHEAL ([14]; 250 g ai/ha) | phytotoxicity rating CASOB ([15]; 63 g ai/ha) | phytotoxicity rating CASOB ([15]; 250 g ai/ha) | phytotoxicity rating ABUTH ([16]; 63 g ai/ha) | phytotoxicity rating ABUTH ([16]; 250 g ai/ha) | phytotoxicity rating DIGSA ([17]; 63 g ai/ha) | phytotoxicity rating DIGSA ([17]; 250 g ai/ha) | phytotoxicity rating ECHCG ([18]; 63 g ai/ha) | phytotoxicity rating ECHCG ([18]; 250 g ai/ha) | phytotoxicity rating IPOHE ([19]; 63 g ai/ha) | phytotoxicity rating IPOHE ([19]; 250 g ai/ha) | phytotoxicity rating SETVI ([20]; 63 g ai/ha) | phytotoxicity rating SETVI ([20]; 250 g ai/ha) | phytotoxicity rating SORHA ([21]; 63 g ai/ha) | phytotoxicity rating SORHA ([21]; 250 g ai/ha) | phytotoxicity rating AMARE ([22]; 63 g ai/ha) | phytotoxicity rating AMARE ([22]; 250 g ai/ha)
80: Post-emerge Herbicidal Activity CASOB (phytotoxicity rating) ([3]; 63 g ai/ha)
